Here are results for nine molecules from PubChem BioAssay (NCI).

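Cultured in 96-well plates, cells were exposed to test compound for 48 hours across five concentrations. At the TGI there is no net growth.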 Where a SMILES comes first, the peptide text is derived from it. The star is where a group is joined. Ethyl(2-NMe3+) = C[N+](C)(C)CC*; Boc = CC(C)(C)OC(=O)*

Test systems include A498 renal; CAKI-1 renal; COLO 205 colon; HCT-116 colon; LOX IMVI melanoma; MCF7 breast; MDA-MB-231 breast; MOLT-4 leukemia; NCI-H23 lung; SF-268 CNS; SF-295 CNS; SF-539 CNS; SK-MEL-28 melanoma; T-47D breast; UO-31 renal.
Common to all, as to assay: NCI tumour cell line growth inhibition, 48 h

As for `C[N+]1(Cc2ccc(Cl)c(Cl)c2)CCCC1C1CCCN(Cc2ccc(Cl)c(Cl)c2)C1` (stereo not given), the TGI in the assay on A498 renal, with CAKI-1 renal, in the assay on COLO 205 colon, in the assay with HCT-116 colon, in the assay with LOX IMVI melanoma and with MCF7 breast was over 100 µM in each case. Also, the TGI in the assay on MDA-MB-231 breast, in the assay with MOLT-4 leukemia, in the assay on NCI-H23 lung, in the assay with SF-268 CNS, in the assay with SF-295 CNS and in the assay with SF-539 CNS was over 100 µM in each case. The TGI with SK-MEL-28 melanoma, with T-47D breast and with UO-31 renal was over 100 µM in each case.

As for `C/C=C(\C)C(=O)OC1C(C)=C2C(C1OC(=O)CCCC)C(C)(OC(C)=O)CC(OC(=O)CCCC)C1(O)C2OC(=O)C1(C)O` (stereo not given), the TGI with A498 renal is over 100 µM; in the assay on CAKI-1 renal, over 92.2 µM; in the assay on COLO 205 colon it was 2.58 µM; in the assay with HCT-116 colon, 2.09 µM; in the assay with LOX IMVI melanoma it was 2.08 µM; in the assay on MCF7 breast, over 100 µM. In addition, the TGI in the assay on MDA-MB-231 breast is 5.87 µM; in the assay on MOLT-4 leukemia it was over 100 µM; with NCI-H23 lung, over 47.4 µM; in the assay with SF-268 CNS, over 100 µM; in the assay with SF-295 CNS, over 100 µM; in the assay with SF-539 CNS, over 100 µM. Besides, the TGI in the assay with SK-MEL-28 melanoma is over 100 µM; with T-47D breast, over 100 µM; in the assay with UO-31 renal it was 71.2 µM.

Consider `Nc1ccc(CCSSCCc2ccc(N)cc2)cc1`, for which the TGI in the assay on A498 renal is over 94.7 µM; with CAKI-1 renal, over 85.2 µM; in the assay with COLO 205 colon, over 100 µM; in the assay with HCT-116 colon, 31.9 µM; with LOX IMVI melanoma, over 59.8 µM; in the assay with MCF7 breast it was over 100 µM. For the same molecule, the TGI was over 91.1 µM in the assay on MDA-MB-231 breast; 14.7 µM in the assay on MOLT-4 leukemia; over 72.6 µM in the assay with NCI-H23 lung; 45.2 µM with SF-268 CNS; over 100 µM in the assay with SF-295 CNS; 63.5 µM in the assay with SF-539 CNS. Moreover, the results for the TGI in the assay on SK-MEL-28 melanoma, in the assay with T-47D breast and in the assay on UO-31 renal were over 78.6 µM, over 92.3 µM and over 82.8 µM, respectively.

Turning to `COc1ccc(N2C(=O)C(C)SC2c2cc3cc(Br)ccc3nc2Cl)cc1` (stereo not given), the TGI in the assay on A498 renal, in the assay with CAKI-1 renal, with COLO 205 colon, in the assay with HCT-116 colon, in the assay with LOX IMVI melanoma and in the assay on MCF7 breast was over 100 µM throughout. Further, the TGI was over 100 µM in the assay with MDA-MB-231 breast; 79.2 µM in the assay with MOLT-4 leukemia; over 100 µM in the assay on NCI-H23 lung; over 100 µM in the assay with SF-268 CNS; over 100 µM in the assay with SF-295 CNS; 55.7 µM in the assay on SF-539 CNS. The TGI with SK-MEL-28 melanoma, in the assay with T-47D breast and in the assay with UO-31 renal was over 100 µM in each case.

On to `OC(c1cc(-c2ccc(Cl)cc2)nc2ccccc12)C1CCCCN1` (stereo not given), for which the TGI in the assay with A498 renal is 3.54 µM; in the assay on CAKI-1 renal, 6.44 µM; in the assay on COLO 205 colon it was 3.19 µM; in the assay on HCT-116 colon it was 3.74 µM; in the assay on LOX IMVI melanoma, 2.09 µM; with MCF7 breast it was 3.03 µM. Moreover, the TGI in the assay with MDA-MB-231 breast worked out at 3.58 µM; with MOLT-4 leukemia it was 4.52 µM; in the assay on NCI-H23 lung it was 4.58 µM; in the assay on SF-268 CNS, 4.51 µM; in the assay on SF-295 CNS, 3.67 µM; with SF-539 CNS, 3.52 µM. The TGI in the assay on SK-MEL-28 melanoma is 3.53 µM; in the assay on T-47D breast, 2.96 µM; in the assay with UO-31 renal, 2.45 µM.

In the case of `Nc1nc2n[nH]nc2c(=O)[nH]1`, the TGI is 32.8 µM with A498 renal; over 100 µM with CAKI-1 renal; 24.3 µM with COLO 205 colon; 8.95 µM in the assay on HCT-116 colon; 6.88 µM in the assay on LOX IMVI melanoma; over 100 µM with MCF7 breast. The TGI with MDA-MB-231 breast was over 100 µM; in the assay with MOLT-4 leukemia, 4.35 µM; with NCI-H23 lung, over 100 µM; in the assay with SF-268 CNS, over 100 µM; in the assay with SF-295 CNS, over 33.1 µM; in the assay on SF-539 CNS, 1.96 µM. Further, the TGI stood at 9.4 µM in the assay on SK-MEL-28 melanoma, 10.5 µM with T-47D breast and 29.3 µM with UO-31 renal.

Consider `CC1(c2cccc(Cl)c2)CC(c2cccc(Cl)c2)=C(C#N)C(=C(C#N)C#N)N1` (stereo not given), for which the TGI in the assay with A498 renal came to 39.3 µM; in the assay with CAKI-1 renal, 32.3 µM; in the assay with COLO 205 colon, 29.9 µM; in the assay with HCT-116 colon, 34.1 µM; in the assay with LOX IMVI melanoma, 39 µM; in the assay on MCF7 breast it was 51.6 µM. The TGI is 48.6 µM in the assay with MDA-MB-231 breast; 57.3 µM with MOLT-4 leukemia; 39 µM in the assay on NCI-H23 lung; 20.1 µM with SF-268 CNS; 33.4 µM in the assay on SF-295 CNS; 37.2 µM in the assay with SF-539 CNS. Further, the results for the TGI in the assay on SK-MEL-28 melanoma, in the assay with T-47D breast and in the assay with UO-31 renal were 74 µM, 38 µM and 29.3 µM, respectively.

With `C=CC[C@@]1([C@H](C=C)COCc2ccc(OC)cc2)CC[C@]2(C)OC(C)(C)[C@@H](c3ccccc3)N2C1=S`, the TGI in the assay with A498 renal was over 100 µM; in the assay on CAKI-1 renal, over 100 µM; in the assay on COLO 205 colon, 41.6 µM; in the assay with HCT-116 colon it was over 100 µM; in the assay on LOX IMVI melanoma, over 100 µM; with MCF7 breast it was over 100 µM. In addition, the TGI with MDA-MB-231 breast, in the assay with MOLT-4 leukemia, with NCI-H23 lung, in the assay on SF-268 CNS, in the assay with SF-295 CNS and in the assay with SF-539 CNS was over 100 µM each time. Also, the TGI in the assay on SK-MEL-28 melanoma, in the assay on T-47D breast and in the assay on UO-31 renal was over 100 µM in each case.

Consider `CC(NC(=O)C(Cc1ccc(OCC[N+](C)(C)C)cc1)NC(=O)OC(C)(C)C)C(=O)NC(Cc1ccccc1)C(=O)NCC(N)=O` (stereo not given) (Boc-Y(Ethyl(2-NMe3+))AFG-NH2; configuration not given here), for which the TGI in the assay on A498 renal was 33.3 µM; in the assay on CAKI-1 renal it was over 100 µM; in the assay with COLO 205 colon, over 100 µM; with HCT-116 colon, over 100 µM; in the assay with LOX IMVI melanoma, over 100 µM; with MCF7 breast, over 100 µM. Moreover, the TGI in the assay with MDA-MB-231 breast was 9.1 µM; in the assay with MOLT-4 leukemia, over 100 µM; in the assay with NCI-H23 lung, 31.8 µM; in the assay on SF-268 CNS it was 25.7 µM; in the assay with SF-295 CNS, 17.4 µM; in the assay with SF-539 CNS, 25.5 µM. Further, the TGI in the assay with SK-MEL-28 melanoma, with T-47D breast and in the assay with UO-31 renal was over 100 µM throughout.
